Like-named read-outs stand apart in the source and are kept apart here. No end group written: not given here.
Key:
[1] = tested on: C57BL/6 mice in stable telogen phase; test: Hair growth promotion efficacy in C57BL/6 mouse model by topical route; assay type: in vivo; settings: 5% solution, 50 μL/cm2 topically twice daily, 4 weeks + 1 week observation
Description: C57Bl6 mice in stable telogen phase (age 6-9 weeks) were carefully clipped. Topical formulation of FOL-005 at three different strengths and placebo was applied at the clipped area once daily, 5 days per week until day 26. For comparison Minoxidil was administered to one group twice daily, 5 days per week until day 26.
The present study was conducted to evaluate the hair growth promotion efficacy of FOL-005 in C57BL/6 mouse model by topical route of administration. Male C57BL/6 mice in stable telogen phase (resting phase) of hair growth cycle were used. The hair on the dorsal back of the animals was clipped and the area was treated with FOL-005 topical formulation, placebo formulation or commercially available Minoxidil 5%.
Three formulations of FOL-005 (High dose—0.5%, Medium dose—0.05% and Low dose—0.005%) along with placebo were screened for hair growth promotion efficacy by applying 50 μL/cm2 on the dorsal clipped skin of animals in the respective groups. The application regimen was total of 4 weeks (5 days/week) followed by 1 week of observation period. […] After completion of observation period, it was observed that FOL-005 formulation led to hair growth promotion efficacy in a dose response manner. […] Visual melanogenesis was also observed in the peeled skin of 3/7 animals, 2/7 animals and 1/7 animal in the High, Medium and Low dose respectively. […]

[2] = Solubility of FOL-005 in vehicle excipients and artificial sebum (HPLC); assay type: physicochemical
Description: The testing was performed by charging 0.1% (w/w) of FOL-005 together with 99.90% excipient. […] The mixtures were stirred with magnetic stirrer for 2 hours. If particles of FOL-005 remained, the mixture was centrifuged at 14000 rpm or 10000 rpm (artificial sebum) for 5 minutes and the supernatant was withdrawn for analysis. The concentration of FOL-005 was determined by HPLC analysis in all batches.

[3] = sodium salt, in PBS buffer pH 7.4, room temperature

Molecule: Nc1cc(N2CCCCC2)nc(N)[n+]1[O-] [Minoxidil]
- Anagen induction followed by hair growth [1]: 4/5
- Visual melanogenesis in the peeled skin [1]: 4/5

Molecule: VDTYDGDISVVYGLR [FOL-005]
- solubility at 2 h ([2]; 0.5% Cithrol in paraffin oil, sodium salt, in 0.5% Cithrol in paraffin oil, room temperature, read-out: FOL-005 solubility): 10 µg/mL
- solubility at 2 h ([2]; 10% glucose in water, in 10% Glucose in water, room temperature, read-out: FOL-005 solubility): > 1010 µg/mL
- solubility of FOL-005 in 10% glucose solution ([2]; 10% glucose solution): above 4.38 % (w/w)
- solubility at 2 h ([2]; 10% mannitol in water, in 10% Mannitol in water, room temperature, read-out: FOL-005 solubility): > 1040 µg/mL
- solubility at 2 h ([2]; 10% sucrose in water, in 10% Sucrose in water, room temperature, read-out: FOL-005 solubility): > 1040 µg/mL
- solubility at 2 h ([2]; 30% glucose in water, in 30% Glucose in water, room temperature, read-out: FOL-005 solubility): > 1070 µg/mL
- solubility at 2 h ([2]; 30% sucrose in water, in 30% Sucrose in water, room temperature, read-out: FOL-005 solubility): > 1040 µg/mL
- solubility at 2 h ([2]; PBS buffer, pH 7.4, sodium salt, in PBS buffer pH 7.4, room temperature, read-out: FOL-005 solubility): > 1000 µg/mL
- solubility at 2 h ([2]; artificial sebum, sodium salt, in artificial sebum, 37° C., read-out: FOL-005 solubility): 270 µg/mL
- Observation ([2]; in 10% Glucose in water, room temperature): soluble
- Observation ([2]; in 10% Mannitol in water, room temperature): soluble
- Observation ([2]; in 10% Sucrose in water, room temperature): soluble
- Observation ([2]; in 30% Glucose in water, room temperature): soluble
- Observation ([2]; in 30% Sucrose in water, room temperature): soluble
- Observation ([2]; in lactic acid, room temperature): soluble
- solubility at 2 h ([2]; lactic acid, in lactic acid, room temperature, read-out: FOL-005 solubility): > 1170 µg/mL
- FOL-005 solubility [2, 3]: >980 µg/mL
- Observation [2, 3]: soluble
- solubility at 2 h ([2]; sugar solutions of glucose, mannitol and sucrose, sodium salt, sugar solutions of glucose, mannitol and sucrose, room temperature, read-out: solubility in sugar solutions): > 1000 µg/mL

Source: US20220273765A1, “TOPICAL FORMULATION” (Follicum AB, priority 2019, published 2022)
